Assay results from US8415469B2, “Compounds and methods for kinase modulation, and indications therefor” (Plexxikon Inc., priority 2005, dated 2013).

How the values were obtained:
Type in all cases: biochemical
MAP2K1 = target: T1, MAP2K1 (Homo sapiens, UniProt Q02750); experiment: Z'-Lyte FRET kinase assay (Invitrogen), MAP2K1; conditions: read-out: IC50, activity toward kinase MAP2K1
T1 construct: purchased Invitrogen (assay run by Invitrogen)

B-Raf V600E = target: T2, B-Raf V600E (Homo sapiens, UniProt P15056, V600E); experiment: AlphaScreen kinase assay, B-Raf V600E; conditions: read-out: IC50, activity toward kinase B-Raf V600E
T2 construct: P4254. pFastBacBD-CDC37 BRAF D437-K722-X, V600E; His6 with pFastBac HT leader (TEV site) (N); made in house; host or cells: Sf9 (baculovirus; chaperone CDC37 co-expressed)
T2 sequence (P15056 with tags, fused parts or gaps V600E): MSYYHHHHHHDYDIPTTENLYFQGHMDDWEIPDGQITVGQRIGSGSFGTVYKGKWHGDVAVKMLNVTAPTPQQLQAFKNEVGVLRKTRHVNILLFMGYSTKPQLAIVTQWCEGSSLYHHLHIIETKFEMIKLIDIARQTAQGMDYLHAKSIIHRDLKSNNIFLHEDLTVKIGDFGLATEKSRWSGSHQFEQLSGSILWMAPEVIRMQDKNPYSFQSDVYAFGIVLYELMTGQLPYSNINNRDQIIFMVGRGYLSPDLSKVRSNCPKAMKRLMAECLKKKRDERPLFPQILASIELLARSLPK

c-Raf-1 = target: T3, c-Raf-1 (Homo sapiens, UniProt P04049); experiment: AlphaScreen kinase assay, c-Raf-1; conditions: read-out: IC50, activity toward kinase c-Raf-1
T3 construct: purchased Upstate Biotechnology

FGFR1 = target: T4, FGFR1 (Homo sapiens, UniProt P11362, C488A/C584S); experiment: AlphaScreen kinase assay, FGFR1; conditions: read-out: IC50, activity toward kinase FGFR
T4 construct: P1351.pET N6 BI-PTP FGFR A458-E765-X C488A, C584S; made in house; host or cells: E. coli (PTP1B co-expressed)
T4 sequence (P11362 458-765 C488A/C584S): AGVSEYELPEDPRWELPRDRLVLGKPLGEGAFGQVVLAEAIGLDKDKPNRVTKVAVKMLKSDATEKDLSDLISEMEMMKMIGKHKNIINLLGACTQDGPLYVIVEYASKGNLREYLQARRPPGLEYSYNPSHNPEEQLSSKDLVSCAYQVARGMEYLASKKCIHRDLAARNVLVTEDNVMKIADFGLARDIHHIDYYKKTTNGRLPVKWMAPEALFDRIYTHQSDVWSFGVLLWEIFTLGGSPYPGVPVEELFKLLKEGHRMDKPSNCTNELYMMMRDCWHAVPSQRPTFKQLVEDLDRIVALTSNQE

Fms = target: T5, Fms (Homo sapiens, UniProt P07333); experiment: AlphaScreen kinase assay, Fms; conditions: read-out: IC50, activity toward kinase Fms
T5 construct: purchased Upstate Biotechnology
T5 sequence (P07333 20-972): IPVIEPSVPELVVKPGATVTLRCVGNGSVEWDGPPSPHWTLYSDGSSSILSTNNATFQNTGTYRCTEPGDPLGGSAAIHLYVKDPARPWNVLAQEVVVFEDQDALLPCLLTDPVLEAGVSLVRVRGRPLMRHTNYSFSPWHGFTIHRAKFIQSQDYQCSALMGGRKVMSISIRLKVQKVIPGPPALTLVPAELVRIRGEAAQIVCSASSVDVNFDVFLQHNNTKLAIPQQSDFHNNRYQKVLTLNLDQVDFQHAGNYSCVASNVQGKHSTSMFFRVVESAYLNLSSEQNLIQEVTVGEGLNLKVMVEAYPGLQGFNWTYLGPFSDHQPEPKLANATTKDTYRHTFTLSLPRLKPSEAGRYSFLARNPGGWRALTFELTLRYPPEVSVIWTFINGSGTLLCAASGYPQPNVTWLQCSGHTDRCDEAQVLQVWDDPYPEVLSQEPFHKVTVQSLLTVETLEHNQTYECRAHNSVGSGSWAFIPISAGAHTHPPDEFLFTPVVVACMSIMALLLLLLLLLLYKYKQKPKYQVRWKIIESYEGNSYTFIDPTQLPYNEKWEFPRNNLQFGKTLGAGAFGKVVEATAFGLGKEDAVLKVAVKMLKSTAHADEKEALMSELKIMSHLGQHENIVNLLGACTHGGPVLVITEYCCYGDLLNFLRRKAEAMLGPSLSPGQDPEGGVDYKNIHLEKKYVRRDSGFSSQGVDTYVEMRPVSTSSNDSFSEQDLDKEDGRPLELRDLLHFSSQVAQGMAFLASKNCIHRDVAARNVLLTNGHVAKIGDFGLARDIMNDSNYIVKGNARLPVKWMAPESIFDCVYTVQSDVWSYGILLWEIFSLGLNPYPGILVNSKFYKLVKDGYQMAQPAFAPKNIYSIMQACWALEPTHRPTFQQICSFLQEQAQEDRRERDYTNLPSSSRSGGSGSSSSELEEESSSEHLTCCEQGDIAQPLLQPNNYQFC

Kdr = target: T6, Kdr (Homo sapiens, UniProt P35968); experiment: Z'-Lyte FRET kinase assay (Invitrogen), Kdr; conditions: read-out: IC50, activity toward kinase Kdr
T6 construct: purchased Invitrogen (assay run by Invitrogen)
T6 sequence (P35968 20-1356): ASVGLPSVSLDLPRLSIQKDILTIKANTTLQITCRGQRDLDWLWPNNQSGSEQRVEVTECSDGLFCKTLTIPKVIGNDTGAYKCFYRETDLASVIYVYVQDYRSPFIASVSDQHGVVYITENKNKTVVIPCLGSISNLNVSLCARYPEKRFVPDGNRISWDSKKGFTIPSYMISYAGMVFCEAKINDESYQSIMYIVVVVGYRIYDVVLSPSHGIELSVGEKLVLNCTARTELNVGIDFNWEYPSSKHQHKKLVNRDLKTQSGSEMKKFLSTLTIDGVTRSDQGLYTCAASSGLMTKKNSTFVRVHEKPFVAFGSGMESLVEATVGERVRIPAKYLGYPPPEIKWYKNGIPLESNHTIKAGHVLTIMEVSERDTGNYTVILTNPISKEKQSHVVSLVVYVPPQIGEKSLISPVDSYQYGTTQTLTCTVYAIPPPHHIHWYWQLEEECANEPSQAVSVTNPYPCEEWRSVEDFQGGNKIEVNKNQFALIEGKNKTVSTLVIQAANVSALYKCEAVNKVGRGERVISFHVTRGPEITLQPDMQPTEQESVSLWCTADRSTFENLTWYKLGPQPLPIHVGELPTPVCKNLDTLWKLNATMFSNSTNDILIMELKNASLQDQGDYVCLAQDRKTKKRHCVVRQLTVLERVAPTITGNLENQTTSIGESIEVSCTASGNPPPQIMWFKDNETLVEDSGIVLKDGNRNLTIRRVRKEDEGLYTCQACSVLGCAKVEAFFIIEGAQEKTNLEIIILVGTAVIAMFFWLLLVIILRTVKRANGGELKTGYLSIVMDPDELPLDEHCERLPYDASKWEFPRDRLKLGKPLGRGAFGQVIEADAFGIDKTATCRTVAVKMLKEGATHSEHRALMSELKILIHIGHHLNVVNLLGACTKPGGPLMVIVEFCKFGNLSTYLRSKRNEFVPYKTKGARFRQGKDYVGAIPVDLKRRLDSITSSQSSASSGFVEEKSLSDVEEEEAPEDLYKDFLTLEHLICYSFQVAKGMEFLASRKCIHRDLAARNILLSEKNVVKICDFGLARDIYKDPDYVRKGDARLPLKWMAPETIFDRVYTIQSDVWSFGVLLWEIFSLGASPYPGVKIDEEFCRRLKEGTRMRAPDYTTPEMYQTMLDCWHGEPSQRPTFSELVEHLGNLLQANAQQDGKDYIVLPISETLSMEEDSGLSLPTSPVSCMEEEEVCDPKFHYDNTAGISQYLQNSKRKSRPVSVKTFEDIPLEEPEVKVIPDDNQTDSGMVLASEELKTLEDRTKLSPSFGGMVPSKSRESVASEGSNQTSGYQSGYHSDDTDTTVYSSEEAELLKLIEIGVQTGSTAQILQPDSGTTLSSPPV

Flt1 = target: T7, Flt1 (Homo sapiens, UniProt P17948); experiment: AlphaScreen kinase assay, Flt1; conditions: read-out: IC50, activity toward kinase Flt1
T7 construct: P1826.pETN6 BI-PTP FLT1 M799-D1165-X WT; His6 (N); made in house; host or cells: E. coli (PTP1B co-expressed)
T7 sequence (P17948 with tags, fused parts or gaps): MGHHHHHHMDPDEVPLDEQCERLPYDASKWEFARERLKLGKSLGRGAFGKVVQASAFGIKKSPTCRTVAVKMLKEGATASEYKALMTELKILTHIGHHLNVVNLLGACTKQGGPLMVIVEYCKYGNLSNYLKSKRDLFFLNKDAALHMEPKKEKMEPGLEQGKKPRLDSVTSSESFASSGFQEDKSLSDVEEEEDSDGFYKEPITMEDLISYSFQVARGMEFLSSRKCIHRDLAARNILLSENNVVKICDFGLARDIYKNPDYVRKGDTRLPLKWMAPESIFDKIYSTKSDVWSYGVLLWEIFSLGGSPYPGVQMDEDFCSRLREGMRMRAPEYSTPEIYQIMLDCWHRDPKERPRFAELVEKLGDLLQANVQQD

Stk6 = target: T8, Stk6 (Homo sapiens, UniProt O14965); experiment: Z'-Lyte FRET kinase assay (Invitrogen), Stk6; conditions: read-out: IC50, activity toward kinase Stk6
T8 construct: purchased Invitrogen (Carlsbad, Calif.), screening service
T8 sequence (O14965 1-403): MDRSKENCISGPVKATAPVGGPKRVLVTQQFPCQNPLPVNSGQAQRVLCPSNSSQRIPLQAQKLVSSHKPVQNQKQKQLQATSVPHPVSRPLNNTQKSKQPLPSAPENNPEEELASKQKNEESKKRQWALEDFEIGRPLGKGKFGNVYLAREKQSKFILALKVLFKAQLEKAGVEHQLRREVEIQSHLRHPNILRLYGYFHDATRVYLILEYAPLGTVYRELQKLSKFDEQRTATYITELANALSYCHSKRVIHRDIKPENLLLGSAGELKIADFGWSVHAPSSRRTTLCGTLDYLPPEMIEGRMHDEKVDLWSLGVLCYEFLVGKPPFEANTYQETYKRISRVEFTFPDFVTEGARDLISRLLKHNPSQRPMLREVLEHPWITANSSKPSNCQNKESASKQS

Btk = target: T9, Btk (Homo sapiens, UniProt Q06187); experiment: Z'-Lyte FRET kinase assay (Invitrogen), Btk; conditions: read-out: IC50, activity toward kinase Btk
T9 construct: purchased Invitrogen (assay run by Invitrogen)

Flt4 = target: T10, Flt4 (Homo sapiens, UniProt P35916); experiment: AlphaScreen kinase assay, Flt4; conditions: read-out: IC50, activity toward kinase Flt4
T10 construct: purchased ProQinase GmbH (Freiburg, Germany)
T10 sequence (P35916 25-1363): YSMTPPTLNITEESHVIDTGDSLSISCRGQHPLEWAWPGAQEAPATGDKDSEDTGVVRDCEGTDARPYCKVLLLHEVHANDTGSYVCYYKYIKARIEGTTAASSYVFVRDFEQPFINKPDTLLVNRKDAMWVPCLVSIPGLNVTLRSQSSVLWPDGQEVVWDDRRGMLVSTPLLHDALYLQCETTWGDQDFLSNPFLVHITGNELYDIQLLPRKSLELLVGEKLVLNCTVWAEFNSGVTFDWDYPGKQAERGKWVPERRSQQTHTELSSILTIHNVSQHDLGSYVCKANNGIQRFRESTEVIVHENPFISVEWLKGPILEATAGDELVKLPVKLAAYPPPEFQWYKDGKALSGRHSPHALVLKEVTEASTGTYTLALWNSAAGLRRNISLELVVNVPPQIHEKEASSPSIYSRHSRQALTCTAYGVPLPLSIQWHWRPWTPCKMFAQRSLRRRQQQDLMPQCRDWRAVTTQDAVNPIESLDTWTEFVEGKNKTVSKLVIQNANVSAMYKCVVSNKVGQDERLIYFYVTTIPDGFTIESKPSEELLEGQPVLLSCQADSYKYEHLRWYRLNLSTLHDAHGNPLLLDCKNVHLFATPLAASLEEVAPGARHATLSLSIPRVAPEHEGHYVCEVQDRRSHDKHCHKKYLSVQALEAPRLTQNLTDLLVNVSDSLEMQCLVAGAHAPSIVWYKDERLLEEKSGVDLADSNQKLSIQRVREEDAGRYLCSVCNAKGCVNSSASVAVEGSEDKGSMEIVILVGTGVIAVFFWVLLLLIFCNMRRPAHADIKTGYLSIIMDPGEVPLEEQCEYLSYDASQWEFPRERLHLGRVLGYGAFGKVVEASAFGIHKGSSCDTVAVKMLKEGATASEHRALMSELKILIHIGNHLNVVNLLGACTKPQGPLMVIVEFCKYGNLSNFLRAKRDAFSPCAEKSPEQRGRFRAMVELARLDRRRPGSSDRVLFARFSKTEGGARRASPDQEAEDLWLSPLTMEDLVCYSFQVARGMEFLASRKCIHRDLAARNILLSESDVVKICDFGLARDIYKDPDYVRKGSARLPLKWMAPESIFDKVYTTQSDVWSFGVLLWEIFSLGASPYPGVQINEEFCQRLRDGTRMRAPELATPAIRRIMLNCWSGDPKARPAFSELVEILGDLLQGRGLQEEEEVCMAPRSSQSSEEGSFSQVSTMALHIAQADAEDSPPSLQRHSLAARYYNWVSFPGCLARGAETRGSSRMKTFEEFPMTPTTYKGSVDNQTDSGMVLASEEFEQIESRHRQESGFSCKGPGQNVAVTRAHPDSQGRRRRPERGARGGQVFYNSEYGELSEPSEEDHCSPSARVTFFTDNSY
Description: AlphaScreen assay was used to screen additional kinases. The assay is similarly dependent on the phosphorylation of a peptide substrate. In this assay, an antibody that recognizes phosphorylated substrate is bound to an acceptor bead. The peptide substrate is attached to biotin, which binds to a donor head that contains streptavidin. Thus phosphorylated substrate is bound by antibody and streptavidin, bringing the donor and acceptor heads into close proximity when kinase is not inhibited. The donor produces singlet oxygen which results in emission from the acceptor when they are in close proximity. Conversely, when kinase is inhibited, the donor and acceptor beads are not associated and the emission from the acceptor is reduced.
AlphaScreen assays were done using compounds dissolved in DMSO to a concentration of 20 mM. The compounds were diluted accordingly to the desired final concentrations in each sample well, using 1:3 serial dilution for a total of 8 concentration points.

Kit = target: T11, Kit (Homo sapiens, UniProt P10721); experiment: AlphaScreen kinase assay, Kit; conditions: read-out: IC50, activity toward kinase Kit
T11 construct: P1332.N6 BI PTP KIT M552-K948-X COD; His6 (N); made in house; host or cells: E. coli (PTP1B co-expressed)
T11 sequence (P10721 with tags, fused parts or gaps): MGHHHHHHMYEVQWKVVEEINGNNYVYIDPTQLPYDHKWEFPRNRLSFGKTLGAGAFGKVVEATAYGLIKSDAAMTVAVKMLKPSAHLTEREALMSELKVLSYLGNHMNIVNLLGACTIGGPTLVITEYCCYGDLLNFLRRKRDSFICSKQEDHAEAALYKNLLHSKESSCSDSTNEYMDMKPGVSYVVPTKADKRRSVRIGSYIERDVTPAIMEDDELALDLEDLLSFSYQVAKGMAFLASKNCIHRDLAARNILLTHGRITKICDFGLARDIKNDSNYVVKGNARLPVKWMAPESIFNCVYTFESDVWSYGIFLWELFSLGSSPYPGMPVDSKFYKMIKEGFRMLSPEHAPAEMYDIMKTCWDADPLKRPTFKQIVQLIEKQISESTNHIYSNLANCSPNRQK

Met = target: T12, Met (Homo sapiens, UniProt P08581); experiment: AlphaScreen kinase assay, Met; conditions: read-out: IC50, activity toward kinase Met
T12 construct: P1818.pETN6 BI-PTP MET G1056-G1364-X WT; His6 (N); made in house; host or cells: E. coli (PTP1B co-expressed)
In short: (§1)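 Here, phosphorylation of a biotin-tagged peptide was sensed by proximity of streptavidin donor and antibody-bearing acceptor beads. Test compounds covered 8 concentrations by 1:3 serial dilution of 20 mM DMSO stocks.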

Ret = target: T13, Ret (Homo sapiens, UniProt P07949); experiment: AlphaScreen kinase assay, Ret; conditions: read-out: IC50, activity toward kinase Ret
T13 construct: P1378.pET-SF BI-PTP RET H661-R1012 HIS; made in house
T13 sequence (P07949 with tags, fused parts or gaps): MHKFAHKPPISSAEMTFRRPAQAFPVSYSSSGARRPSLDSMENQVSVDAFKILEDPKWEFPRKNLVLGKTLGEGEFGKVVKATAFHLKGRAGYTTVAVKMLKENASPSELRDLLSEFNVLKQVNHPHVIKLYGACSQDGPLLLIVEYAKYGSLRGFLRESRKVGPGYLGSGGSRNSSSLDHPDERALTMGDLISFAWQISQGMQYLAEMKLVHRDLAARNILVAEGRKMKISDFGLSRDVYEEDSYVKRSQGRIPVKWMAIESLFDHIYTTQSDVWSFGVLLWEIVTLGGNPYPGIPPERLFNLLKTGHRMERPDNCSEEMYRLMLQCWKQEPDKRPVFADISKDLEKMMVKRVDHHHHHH

Abl = target: T14, Abl (Homo sapiens, UniProt P00519); experiment: AlphaScreen kinase assay, Abl; conditions: read-out: activity toward kinase Abl, IC50
T14 construct: P1121. pET-SPEC BI-PTP Abl G227-V515-X; His6 (N); made in house; host or cells: E. coli (PTP1B co-expressed)
T14 sequence (P00519 with tags, fused parts or gaps): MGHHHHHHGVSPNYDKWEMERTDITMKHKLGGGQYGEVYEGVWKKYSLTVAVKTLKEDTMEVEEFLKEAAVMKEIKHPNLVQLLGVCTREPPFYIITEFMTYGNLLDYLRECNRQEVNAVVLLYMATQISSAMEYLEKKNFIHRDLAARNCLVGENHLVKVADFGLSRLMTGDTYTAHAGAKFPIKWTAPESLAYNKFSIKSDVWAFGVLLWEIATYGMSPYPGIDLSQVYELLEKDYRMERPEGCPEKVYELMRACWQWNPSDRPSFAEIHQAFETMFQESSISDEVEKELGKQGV
In short: as §1

Jnk1 = target: T15, Jnk1 (Homo sapiens, UniProt P45983); experiment: AlphaScreen kinase assay, Jnk1; conditions: read-out: IC50, activity toward kinase Jnk1
T15 construct: purchased Upstate Biotechnology

Jnk3 = target: T16, Jnk3 (Homo sapiens, UniProt P53779); experiment: AlphaScreen kinase assay, Jnk3; conditions: read-out: IC50, activity toward kinase Jnk3
T16 construct: purchased Upstate Biotechnology

Src = target: T17, Src (Homo sapiens, UniProt P12931); experiment: AlphaScreen kinase assay, Src; conditions: read-out: IC50, activity toward kinase Src
T17 construct: P1144. pET-N6 BI-PTP SRC V86-L536-X; made in house

Zap70 = target: T18, Zap70 (Homo sapiens, UniProt P43403); experiment: AlphaScreen kinase assay, Zap70; conditions: read-out: IC50, activity toward kinase Zap70
T18 construct: P1868.pFastBac1 ZAP70 D327-G606 HIS, WT; His7 (HHHHHHH) (C); made in house
T18 sequence (P43403 with tags, fused parts or gaps): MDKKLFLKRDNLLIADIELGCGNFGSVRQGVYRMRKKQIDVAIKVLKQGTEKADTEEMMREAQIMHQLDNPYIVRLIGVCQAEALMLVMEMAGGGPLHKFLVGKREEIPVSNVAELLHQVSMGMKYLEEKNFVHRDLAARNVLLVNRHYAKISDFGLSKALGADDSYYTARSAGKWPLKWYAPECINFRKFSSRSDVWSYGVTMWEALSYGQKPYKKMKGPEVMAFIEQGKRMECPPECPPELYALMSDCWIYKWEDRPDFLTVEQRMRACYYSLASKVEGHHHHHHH
In short: as §1

T1 sequence (Q02750 whole entry): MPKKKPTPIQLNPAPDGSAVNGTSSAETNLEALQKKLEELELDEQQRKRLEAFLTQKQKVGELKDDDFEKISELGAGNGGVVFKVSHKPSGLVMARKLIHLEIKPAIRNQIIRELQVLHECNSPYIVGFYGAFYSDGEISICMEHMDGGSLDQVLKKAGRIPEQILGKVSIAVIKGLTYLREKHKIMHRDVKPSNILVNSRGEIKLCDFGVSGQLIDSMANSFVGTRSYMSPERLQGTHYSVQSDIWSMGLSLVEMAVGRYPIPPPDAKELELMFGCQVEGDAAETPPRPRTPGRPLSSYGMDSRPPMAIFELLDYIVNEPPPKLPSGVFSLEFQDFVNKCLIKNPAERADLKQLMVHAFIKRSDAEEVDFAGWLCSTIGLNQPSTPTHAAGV

IC50 (MAP2K1)	IC50 (B-Raf V600E)	IC50 (FGFR1)	IC50 (Kdr)	IC50 (Flt1)	SMILES	other results
≤ 10 µM	–	–	–	–	O=C(CCc1c[nH]c2ncccc12)NCc1ccccc1 [Compound P-0331]	–
≤ 10 µM	≤ 10 µM	≤ 10 µM	≤ 10 µM	–	CS(=O)(=O)Nc1ccc(F)c(C(=O)c2c[nH]c3ncc(Br)cc23)c1 [Compound P-0170, N-[3-(5-Bromo-1H-pyrrolo[2,3-b]pyridine-3-carbonyl)-4-fluoro-phenyl]-methanesulfonamide]	IC50 (c-Raf-1): ≤ 10 µM; IC50 (Fms): ≤ 10 µM
≤ 10 µM	–	–	≤ 10 µM	≤ 10 µM	S=C(NCc1c[nH]c2ncccc12)Nc1cccc(Cl)c1 [Compound P-0337]	–
≤ 10 µM	–	–	≤ 10 µM	–	c1cncc(-c2c[nH]c3ncccc23)c1 [Compound P-0023]	IC50 (Stk6): ≤ 10 µM
≤ 10 µM	–	–	–	–	O=C(NCc1cccc(Cl)c1)NCc1c[nH]c2ncccc12 [Compound P-0568]	–
–	≤ 10 µM	≤ 10 µM	–	≤ 10 µM	COc1ccc(F)c(C(=O)c2c[nH]c3ncc(-c4cccc(NC(C)=O)c4)cc23)c1 [Compound P-0325]	IC50 (Btk): ≤ 10 µM; IC50 (Flt4): ≤ 10 µM; IC50 (Fms): ≤ 10 µM; IC50 (Kit): ≤ 10 µM; IC50 (Met): ≤ 10 µM; IC50 (Ret): ≤ 10 µM
–	≤ 10 µM	≤ 10 µM	≤ 10 µM	≤ 10 µM	Nc1cccc(-c2cnc3[nH]cc(C(=O)c4ccccc4F)c3c2)c1 [Compound P-0624]	IC50 (Abl): ≤ 10 µM; IC50 (Flt4): ≤ 10 µM; IC50 (Jnk1): ≤ 10 µM; IC50 (Jnk3): ≤ 10 µM; IC50 (Kit): ≤ 10 µM; IC50 (Ret): ≤ 10 µM; IC50 (Src): ≤ 10 µM; IC50 (Zap70): ≤ 10 µM
